Reference: patent US20120016011A1, “RNA Interference Mediated Inhibition of Connective Tissue Growth Factor (CTGF) Gene Expression Using Short Interfering Nucleic Acid (siNA)” (Merck Sharp & Dohme Corp., priority 2009, published 2012)
[invAb] = inverted abasic unit; m = 2'-O-methyl; r = 2'-OH (RNA); f = 2'-fluoro

Key:
CTGF mRNA [1] = test: CTGF mRNA knockdown (Taqman RT-PCR) after siNA transfection of human NHLF cells; assay type: cell-based; conditions: 10 nM siNA, 24 hrs, average of 3 experiments, vs non-targeting control
In short: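 Normal human lung fibroblasts (5000 cells/well) were transfected 24 h after plating with 10 nM siNA complexed with RNAiMax and harvested 24 h later without a media change. CTGF mRNA was measured by TaqMan RT-qPCR on Cells-to-CT lysates, with β-actin and GAPDH assayed alongside. Knockdown was calculated by comparative Ct (ΔΔCt) against non-targeting control siNA.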

CTGF mRNA [2] = test: CTGF mRNA knockdown (Taqman RT-PCR) after siNA transfection of mouse NIH 3T3 cells; assay type: cell-based; conditions: mouse NIH3T3 cells, 10 nM siNA, 24 hrs, average of 3 experiments, vs non-targeting control
In short: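 Mouse NIH 3T3 cells, 5000/well, transfected 24 h after plating with siNA at 10 nM final using RNAiMax, 24 h exposure without media change. CTGF mRNA by TaqMan RT-qPCR with GAPDH, knockdown via comparative Ct (2^−ΔΔCt) against non-targeting control siNA.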

48049-DC: siNA duplex; sense SEQ ID NO: 63 B cGuGuGcAccGccAAAGAu TTB; antisense SEQ ID NO: 64 AUCuuuGGcGGuGcAcAcGUU (sense CGUGUGCACCGCCAAAGAUTT; antisense AUCUUUGGCGGUGCACACGUU; sense: DNA at AGT, 2'-fluoro at CU, [invAb] at 5' end, 3' end, backbone not given here; antisense: sugars from the 5' end rrrfffmmfmmfmfmfmfmmm, backbone not given here)
% KD Human (CTGF mRNA [1]): 27 ± 2%
% KD Mouse (CTGF mRNA [2]): −9 ± 6%

48041-DC: siNA duplex; sense SEQ ID NO: 47 B GAuucccAcccAAuucAAA TTB; antisense SEQ ID NO: 48 UUUGAAuuGGGuGGGAAucUU (sense GAUUCCCACCCAAUUCAAATT; antisense UUUGAAUUGGGUGGGAAUCUU; sense: DNA at AGT, 2'-fluoro at CU, [invAb] at 5' end, 3' end, backbone not given here; antisense: sugars from the 5' end rrrmmmffmmmfmmmmmffmm, backbone not given here)
% KD Human (CTGF mRNA [1]): 73±4%
% KD Mouse (CTGF mRNA [2]): 13 ± 3%

48043-DC: siNA duplex; sense SEQ ID NO: 51 B GAcAuAccGAGcuAAAuuc TTB; antisense SEQ ID NO: 52 GAAuuuAGcucGGuAuGucUU (sense GACAUACCGAGCUAAAUUCTT; antisense GAAUUUAGCUCGGUAUGUCUU; sense: DNA at AGT, 2'-fluoro at CU, [invAb] at 5' end, 3' end, backbone not given here; antisense: sugars from the 5' end rrrfffmmfffmmfmfmffmm, backbone not given here)
% KD Human (CTGF mRNA [1]): 57 ± 7%
% KD Mouse (CTGF mRNA [2]): 48 ± 0%

48065-DC: siNA duplex; sense SEQ ID NO: 95 B GccuGucAAGuuuGAGcuu TTB; antisense SEQ ID NO: 96 AAGcucAAAcuuGAcAGGcUU (sense GCCUGUCAAGUUUGAGCUUTT; antisense AAGCUCAAACUUGACAGGCUU; sense: DNA at AGT, 2'-fluoro at CU, [invAb] at 5' end, 3' end, backbone not given here; antisense: sugars from the 5' end rrrfffmmmfffmmfmmmfmm, backbone not given here)
% KD Human (CTGF mRNA [1]): 19 ± 6%
% KD Mouse (CTGF mRNA [2]): 46 ± 7%

48069-DC: siNA duplex; sense SEQ ID NO: 103 B AGuGcAuccGGAcAccuAA TTB; antisense SEQ ID NO: 104 UUAGGuGuccGGAuGcAcuUU (sense AGUGCAUCCGGACACCUAATT; antisense UUAGGUGUCCGGAUGCACUUU; sense: DNA at AGT, 2'-fluoro at CU, [invAb] at 5' end, 3' end, backbone not given here; antisense: sugars from the 5' end rrrmmfmfffmmmfmfmffmm, backbone not given here)
% KD Human (CTGF mRNA [1]): 45 ± 7%
% KD Mouse (CTGF mRNA [2]): 55 ± 2%

48050-DC: siNA duplex; sense SEQ ID NO: 65 B cuGccuGGuccAGAccAcA TTB; antisense SEQ ID NO: 66 UGUGGucuGGAccAGGcAGUU (sense CUGCCUGGUCCAGACCACATT; antisense UGUGGUCUGGACCAGGCAGUU; sense: DNA at AGT, 2'-fluoro at CU, [invAb] at 5' end, 3' end, backbone not given here; antisense: sugars from the 5' end rrrmmfffmmmffmmmfmmmm, backbone not given here)
% KD Human (CTGF mRNA [1]): 3 ± 18%
% KD Mouse (CTGF mRNA [2]): −13 ± 5%

48054-DC: siNA duplex; sense SEQ ID NO: 73 B GAcuuGAcAGuGGAAcuAc TTB; antisense SEQ ID NO: 74 GUAGuuccAcuGucAAGucUU (sense GACUUGACAGUGGAACUACTT; antisense GUAGUUCCACUGUCAAGUCUU; sense: DNA at AGT, 2'-fluoro at CU, [invAb] at 5' end, 3' end, backbone not given here; antisense: sugars from the 5' end rrrmffffmffmffmmmffmm, backbone not given here)
% KD Human (CTGF mRNA [1]): 70 ± 5%
% KD Mouse (CTGF mRNA [2]): 17 ± 3%

48059-DC: siNA duplex; sense SEQ ID NO: 83 B AcGAAcucAuuAGAcuAuA TTB; antisense SEQ ID NO: 84 UAUAGucuAAuGAGuucGuUU (sense ACGAACUCAUUAGACUAUATT; antisense UAUAGUCUAAUGAGUUCGUUU; sense: DNA at AGT, 2'-fluoro at CU, [invAb] at 5' end, 3' end, backbone not given here; antisense: sugars from the 5' end rrrmmfffmmfmmmfffmfmm, backbone not given here)
% KD Human (CTGF mRNA [1]): 25 ± 9%
% KD Mouse (CTGF mRNA [2]): 80 ± 4%
